Laboratory results from PubChem BioAssay (NCI).
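Each compound was tested at five concentrations against cells in 96-well plates for 48 hours. GI50 = concentration required for 50% inhibition of growth. TGI denotes the concentration required for complete inhibition of growth.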

How the values were obtained:
Assay in all cases: NCI tumour cell line growth inhibition, 48 h
[1] = system: HOP-62 NSCLC
[2] = system: SW-620 colon
[3] = system: CCRF-CEM leukemia
[4] = system: COLO 205 colon
[5] = system: RPMI-8226 leukemia
[6] = system: SR leukemia
[7] = system: MOLT-4 leukemia
[8] = system: 786-0 renal
[9] = system: A549 NSCLC
[10] = system: SNB-19 CNS
[11] = system: SK-MEL-28 melanoma
[12] = system: HCT-116 colon
[13] = system: NCI-H522 lung
[14] = system: SNB-75 CNS
[15] = system: UACC-62 melanoma
[16] = system: K-562 leukemia
[17] = system: OVCAR-4 ovarian
[18] = system: SK-MEL-5 melanoma
[19] = system: BT-549 breast
[20] = system: MCF7 breast
[21] = system: SF-268 CNS
[22] = system: U251 CNS
[23] = system: OVCAR-5 ovarian
[24] = system: IGROV1 ovarian
[25] = system: NCI-H23 lung
[26] = system: A498 renal
[27] = system: SF-539 CNS
[28] = system: CAKI-1 renal
[29] = system: TK-10 renal
[30] = system: MALME-3M melanoma
[31] = system: ACHN renal
[32] = system: HCC-2998 colon
[33] = system: T-47D breast
[34] = system: HL-60(TB) leukemia
[35] = system: RXF 393 renal
[36] = system: HS 578T breast
[37] = system: MDA-MB-231 breast
[38] = system: MDA-MB-435
[39] = system: SK-OV-3 ovarian
[40] = system: EKVX NSCLC
[41] = system: HCT-15 colon
[42] = system: SK-MEL-2 melanoma
[43] = system: DU-145 prostate
[44] = system: PC-3 prostate
[45] = system: SN12C renal
[46] = system: LOX IMVI melanoma
[47] = system: NCI-H460 lung
[48] = system: HT29 colon
[49] = system: M14 melanoma
[50] = system: UO-31 renal
[51] = system: HOP-92 NSCLC
[52] = system: KM12 colon
[53] = system: UACC-257 melanoma
[54] = system: OVCAR-3 ovarian
[55] = system: OVCAR-8 ovarian
[56] = system: NCI/ADR-RES ovarian
[57] = system: SF-295 CNS

## CCCCC/C=C/C(=O)CCc1ccc(O)c(OC)c1
[1]
  GI50: 9.77 µM
  TGI: 22.1 µM
[2]
  GI50: 2860 nM
  TGI: 10.3 µM
[3]
  GI50: 198 nM
  TGI: 3.01 µM
[4]
  GI50: 11.2 µM
  TGI: 24.1 µM
[5]
  GI50: 1690 nM
  TGI: 4.34 µM
[6]
  GI50: 2890 nM
  TGI: > 100 µM
[7]
  GI50: 10.1 µM
  TGI: > 100 µM
[8]
  GI50: 10.6 µM
  TGI: 23.6 µM
[9]
  GI50: 6.25 µM
  TGI: 20.8 µM
[10]
  GI50: 14 µM
  TGI: 27.1 µM
[11]
  GI50: 15 µM
  TGI: 28.7 µM
[12]
  GI50: 1710 nM
  TGI: 3.26 µM
[13]
  GI50: 2000 nM
  TGI: 13.6 µM
[14]
  GI50: 5.63 µM
  TGI: 20.5 µM
[15]
  GI50: 13.9 µM
  TGI: 27.7 µM
[16]
  GI50: 3.77 µM
  TGI: > 100 µM
[17]
  GI50: 11 µM
  TGI: 23.1 µM
[18]
  GI50: 12.4 µM
  TGI: 25.1 µM
[19]
  GI50: 13.2 µM
  TGI: 26.7 µM
[20]
  GI50: 3.11 µM
  TGI: 15.8 µM
[21]
  GI50: 10.9 µM
  TGI: 25.5 µM
[22]
  GI50: 4.65 µM
  TGI: 17.1 µM
[23]
  GI50: 16.2 µM
  TGI: 32.1 µM
[24]
  GI50: 1740 nM
  TGI: 6.91 µM
[25]
  GI50: 4.62 µM
  TGI: 17.9 µM
[26]
  GI50: 13.1 µM
  TGI: 26.8 µM
[27]
  GI50: 5.4 µM
  TGI: 20.6 µM
[28]
  GI50: 9.38 µM
  TGI: 27.5 µM
[29]
  GI50: 11.6 µM
  TGI: 24.7 µM
[30]
  GI50: 16.6 µM
  TGI: 35.3 µM
[31]
  GI50: 11.8 µM
  TGI: 24.1 µM
[32]
  GI50: 16.7 µM
  TGI: 30.7 µM
[33]
  GI50: 4.78 µM
  TGI: 18.9 µM
[34]
  GI50: 784 nM
  TGI: 43.9 µM
[35]
  GI50: 5.4 µM
  TGI: 18.6 µM
[36]
  GI50: 3.49 µM
  TGI: 32.8 µM
[37]
  GI50: 12.6 µM
  TGI: 32.8 µM
[38]
  GI50: 4.04 µM
  TGI: 19 µM
[39]
  GI50: 13.8 µM
  TGI: 27.4 µM
[40]
  GI50: 15.1 µM
  TGI: 31.9 µM
[41]
  GI50: 10.8 µM
  TGI: 27.2 µM
[42]
  GI50: 14.8 µM
  TGI: 28.8 µM
[43]
  GI50: 4.03 µM
  TGI: 15.4 µM
[44]
  GI50: 3.75 µM
  TGI: 18 µM
[45]
  GI50: 7.99 µM
  TGI: 21.4 µM
[46]
  GI50: 1600 nM
  TGI: 3.29 µM
[47]
  GI50: 15.2 µM
  TGI: 33.6 µM
[48]
  GI50: 2130 nM
  TGI: 4.94 µM
[49]
  GI50: 5.5 µM
  TGI: 19.4 µM
[50]
  GI50: 1280 nM
  TGI: 13.6 µM
[51]
  GI50: 3.42 µM
  TGI: 18.5 µM
[52]
  GI50: 3.09 µM
  TGI: 11.7 µM
[53]
  GI50: 9.67 µM
  TGI: 22.3 µM
[54]
  GI50: 3.23 µM
  TGI: 12.9 µM
[55]
  GI50: 4.03 µM
  TGI: 16.7 µM
[56]
  GI50: 7.49 µM
  TGI: 37 µM
[57]
  GI50: 10.4 µM
  TGI: 31 µM
